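Values below derive from 48-hour exposures of cells grown in 96-well plates, with endpoints linearly interpolated between the two concentrations bracketing the appropriate inhibition level. GI50: concentration for 50% inhibition of growth.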 Calls of active or inactive are those of the source. Cut-off read from the data, not from the text of the source: active = GI50 up to about 1.1 µM and inactive = higher.
Key:
Assay in all cases: NCI anticancer screen, dose series, 48 h
COLO 205 = test system: COLO 205
SK-MEL-2 = test system: SK-MEL-2
MDA-MB-231 = test system: MDA-MB-231
MDA-MB-435 = test system: MDA-MB-435
IGROV-1 = test system: IGROV-1
OVCAR-5 = test system: OVCAR-5
UACC-257 = test system: UACC-257
CAKI-1 = test system: CAKI-1
NCI/ADR-RES = test system: NCI/ADR-RES
UACC-62 = test system: UACC-62
TK-10 = test system: TK-10
M14 = test system: M14
HCC 2998 = test system: HCC 2998
SF-268 = test system: SF-268
CCRF-CEM = test system: CCRF-CEM
OVCAR-3 = test system: OVCAR-3
LOX IMVI = test system: LOX IMVI
HOP-62 = test system: HOP-62
HL-60 = test system: HL-60

Measured: GI50

Nn1c(CCCCCCCCc2nnc(COc3ccc(Cl)cc3)n2N)nnc1COc1ccc(Cl)cc1
inactive: COLO 205 > 100 µM | SK-MEL-2 > 100 µM | MDA-MB-231 > 100 µM | MDA-MB-435 > 100 µM | IGROV-1 > 100 µM | OVCAR-5 > 100 µM | UACC-257 > 100 µM | CAKI-1 16.9 µM | NCI/ADR-RES > 100 µM | UACC-62 > 100 µM | TK-10 78 µM | M14 > 100 µM | HCC 2998 > 100 µM | SF-268 > 100 µM

Cc1cccc(-c2cc(O)c3cccnc3n2)c1
active: COLO 205 0.236 µM | CCRF-CEM 0.935 µM | MDA-MB-435 0.0298 µM | IGROV-1 0.914 µM | OVCAR-3 0.301 µM | NCI/ADR-RES 0.618 µM | UACC-62 0.292 µM | LOX IMVI 0.512 µM | M14 0.555 µM | HL-60 0.128 µM
inactive: MDA-MB-231 2.09 µM | OVCAR-5 2.96 µM | HOP-62 17.6 µM | HCC 2998 1.98 µM | SF-268 59 µM

Cc1ccc(Nc2cn(COCc3ccccc3)c(=O)[nH]c2=O)cc1
inactive: COLO 205 > 100 µM | CCRF-CEM > 100 µM | MDA-MB-435 > 100 µM | IGROV-1 45.6 µM | OVCAR-5 > 100 µM | UACC-257 > 100 µM | OVCAR-3 > 100 µM | CAKI-1 65.5 µM | NCI/ADR-RES > 100 µM | UACC-62 43.9 µM | LOX IMVI > 100 µM | HOP-62 29.4 µM | M14 > 100 µM | HCC 2998 > 100 µM | SF-268 27.8 µM | HL-60 > 100 µM

CCOC(=O)N1CCN(c2ccc3ccc(N)nc3n2)CC1
inactive: COLO 205 > 100 µM | SK-MEL-2 > 100 µM | CCRF-CEM 50.1 µM | MDA-MB-231 > 100 µM | MDA-MB-435 > 100 µM | IGROV-1 > 100 µM | OVCAR-5 > 100 µM | UACC-257 > 100 µM | OVCAR-3 > 100 µM | CAKI-1 > 100 µM | NCI/ADR-RES > 100 µM | UACC-62 > 100 µM | TK-10 > 100 µM | LOX IMVI > 100 µM | HOP-62 > 100 µM | M14 > 100 µM | HCC 2998 > 100 µM | SF-268 > 100 µM | HL-60 > 100 µM

Cc1ccc(-c2c(C#N)c(-c3ccccc3)n(NS(=O)(=O)c3ccc(C)cc3)c(=O)c2C#N)cc1
inactive: COLO 205 > 100 µM | SK-MEL-2 35.8 µM | CCRF-CEM 23 µM | MDA-MB-231 > 100 µM | MDA-MB-435 61.7 µM | IGROV-1 36.7 µM | OVCAR-5 > 100 µM | UACC-257 > 100 µM | CAKI-1 71.1 µM | NCI/ADR-RES 96.4 µM | UACC-62 43.8 µM | TK-10 55.3 µM | LOX IMVI 26.7 µM | HOP-62 41.9 µM | M14 74.1 µM | HCC 2998 47.4 µM | SF-268 90.8 µM

S=c1oc(CCCCCCCCc2nn(CNc3ccccc3)c(=S)o2)nn1CNc1ccccc1
inactive: COLO 205 > 100 µM | SK-MEL-2 > 100 µM | MDA-MB-231 > 100 µM | MDA-MB-435 > 100 µM | OVCAR-5 > 100 µM | UACC-257 > 100 µM | CAKI-1 > 100 µM | NCI/ADR-RES > 100 µM | UACC-62 > 100 µM | TK-10 > 100 µM | HOP-62 > 100 µM | M14 > 100 µM | HCC 2998 > 100 µM | SF-268 > 100 µM

O=C1NC(=O)C2C(=O)NC(=O)C1C2(c1ccccc1)c1cc[nH]c1 (stereo unspecified)
inactive: COLO 205 > 100 µM | SK-MEL-2 > 100 µM | CCRF-CEM > 100 µM | IGROV-1 > 100 µM | OVCAR-5 > 100 µM | UACC-257 > 100 µM | OVCAR-3 > 100 µM | CAKI-1 > 100 µM | UACC-62 > 100 µM | TK-10 > 100 µM | LOX IMVI > 100 µM | HOP-62 > 100 µM | M14 > 100 µM | HCC 2998 > 100 µM | SF-268 > 100 µM | HL-60 > 100 µM

Source: ChEMBL document CHEMBL1201862, “PubChem BioAssay data set” (2004)
